What all share (type): cell-based
For experiment [1], the target named is T1, GPR54 (Homo sapiens, UniProt Q969F8). Briefly: Inositol phosphate (IP) antagonism assay: inhibition of 10 nM kisspeptin-10 stimulation of IP in CHO/gpr-54 cells. Also on record: G. Vassart, Univ; Brussels. To be noted: for IC50 / Inhibition of IP stimulation by 10 nM Agonist: % Inhibition of Max: CHO cells, 10 nM kisspeptin-10; for IC50: unit inferred, given in M. How it is done: Inositol-3-phoshate Antagonistic Assay—Cell monolayers had 0.5 mls HEPES modified DMEM supplemented with […] for 30 mins at 37° C. to block IP3 breakdown. Cells were then stimulated with 0.25 mls 10 nM Kisspeptin-10 plus 0.25 mls of 10 nM Kisspeptin-10 or analogues (10 pM-10 uM) diluted at 1:1000 in the above media for 1 hr at 37° C., then in 10 mM Formic acid at 4° C. for 1 hr to lyse cells. Lysate was then transferred to plastic tubes containing 0.5 mls Dowex resin to bind the radioactive IP3 and the resin was then washed with 1 ml H2O. The resin was then washed with 60 mM NH4 formate/5 mM Sodium tetraborate followed by 1M NH4 formate/0.1M Formic acid to release the bound radiation. Then 800 μls of the radioactive solution were transferred to scintillation vials containing 2.5 mls scintillation fluid and radioactivity counted on a Beta counter for 60 seconds.
Chinese hamster ovary (CHO) cells stably-expressing the human gpr-54 receptor (CHO/gpr-54) were obtained from Prof. G. Vassart, Univ. Brussels. The cells were maintained in Dulbecco's modified Eagle's medium (DMEM; Sigma) supplemented with 10% fetal calf serum, 2% glutamine and 1% penicillin (10,000 units/ml)/streptomycin ([…]) at 37° C. in a humidified 5% CO2 atmosphere.
Experiments were repeated 3-5 times. IP production was plotted as mean values±SEM and analyzed using a Student's t-Test ([…]).

The target of experiment [2] is T1, GPR54. Briefly: Inositol phosphate (IP) stimulation assay in CHO/gpr-54 cells. Also on record: G. Vassart, Univ; Brussels. As to conditions: CHO cells stably-expressing human gpr-54.
Method: Inositol-3-phoshate Stimulation Assay—Cell monolayers had 0.5 mls HEPES modified DMEM supplemented with 1% Penicillin/Streptomycin for 30 mins at 37° C. to block IP3 breakdown. Cells were then stimulated with 0.5 mls Kisspeptin-10 and analogues (10 pM-1 uM) diluted at 1:1000 in the above media for 1 hr at 37° C., then in 10 mM Formic acid at 4° C. for 1 hr to lyse cells. Lysate was then transferred to plastic tubes containing 0.5 mls Dowex resin to bind the radioactive IP3 and the resin was then washed with 1 ml H2O. The resin was then washed with 60 mM NH4 formate/5 mM Sodium tetraborate followed by 1M NH4 formate/0.1M Formic acid to release the bound radiation. Then 800 μls of the radioactive solution were transferred to scintillation vials containing 2.5 mls scintillation fluid and radioactivity counted on a Beta counter for 60 seconds.
IP stimulation refers to intrinsic residual agonist activity where estimateable.
The cells were maintained in Dulbecco's modified Eagle's medium (DMEM; Sigma) supplemented with 10% fetal calf serum, 2% glutamine and 1% penicillin (10,000 units/ml)/streptomycin (10,000 mg/ml) at 37° C. in a humidified 5% CO2 atmosphere.
Prior to stimulation CHO/gpr-54 cells were washed twice with Dulbecco's phosphate-buffered saline (DPBS; without calcium or magnesium) then incubated overnight with ^3H-myoinositol, labeled HEPES-modified DMEM with 1% penicillin/streptomycin at 37° C. HEPES-modified DMEM supplemented with 1% penicillin/streptomycin and 1% lithium chloride (0.5 ml) was added to cells for 30 min at 37° C. to block IP hydrolysis. Cells were then stimulated with 0.5 ml kisspeptin-10 and analogues (10 pM-1 μM) diluted at 1:100 in the above media for 1 h at 37° C., then with 10 mM formic acid at 4° C. for 1 h to lyse cells. Lysates were transferred to plastic tubes containing 0.5 ml Dowex resin to bind the radioactive IP and the resin was then washed with 1 ml water. The resin was next washed with 60 mM ammonium formate/5 mM sodium tetraborate. followed by 1M ammonium formate/0.1M formic acid to release the bound radiation. Then 800 μl of the radioactive solution were transferred to scintillation vials containing 2.5 ml scintillation fluid and radioactivity counted on a Beta counter for 60 sec. Experiments were repeated 3-5 times. IP production was plotted as mean values±SEM and analyzed by using a Student's t-Test (p≧0.05).
In experiment [3] the test system is HUVECs (Human Umbilical Vein Endothelial Cells). Briefly: Cell migration (wound healing) assay in HUVECs. To be noted: 22 hrs. How it is done: Human Umbilical Vein Endothelial Cells (HUVECs) isolated from neonatal umbilical cord were used as they endogenously express gpr-54, which is though to be involved in cell migration in the placenta. Chinese hamster ovary (CHO) cells which stably express the human gpr-54 receptor were used as a model cell line for wound healing assays. […] Complete media was added along with 1 nM Kisspeptin-10 for HUVECs and 100 nM Kisspeptin-10 for CHO cells, the optimal concentrations to inhibit cell migration (wound healing) in each cell type, in the presence and absence of antagonist 233, 234, 273 and 276 for HUVECs and 234 for CHOs. […] Cells were photographed on the axiovert 2000 at 20× magnification in phase contrast (Hori et al., 2001. Metastin suppresses the motility and growth of CHO cells transfected with its receptor. Biochem Biophys Res Commun 286, 958-963; Stafford et al., 2002, Identification and characterization of mouse metastasis-suppressor KiSS1 and its G-protein-coupled receptor. Cancer Res 62, 5399-5404).

In general, IC50 refers to the concentration that gives 50% inhibition. A high value points to weaker potency.

SMILES strings stand for the structures. Non-standard residues stand in square brackets, D forms with d. Residues, ends and D or L forms follow the SMILES beside them.

T1 sequence (Q969F8 whole entry): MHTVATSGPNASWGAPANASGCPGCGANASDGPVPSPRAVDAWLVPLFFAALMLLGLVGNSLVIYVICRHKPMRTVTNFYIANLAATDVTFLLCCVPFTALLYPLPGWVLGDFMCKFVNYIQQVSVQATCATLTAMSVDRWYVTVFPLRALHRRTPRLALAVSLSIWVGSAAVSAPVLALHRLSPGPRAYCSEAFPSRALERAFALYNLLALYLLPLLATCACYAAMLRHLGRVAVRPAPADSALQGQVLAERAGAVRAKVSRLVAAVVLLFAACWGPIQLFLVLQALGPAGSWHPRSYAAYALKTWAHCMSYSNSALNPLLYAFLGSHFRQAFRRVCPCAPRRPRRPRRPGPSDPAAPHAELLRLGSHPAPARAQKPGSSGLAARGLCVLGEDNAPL

At GPR54 [1], `CC(=O)N[C@H](Cc1ccc(O)cc1)C(=O)N[C@@H](CC(N)=O)C(=O)N[C@@H](Cc1c[nH]c2ccccc12)C(=O)N[C@@H](CC(N)=O)C(=O)NCC(=O)N[C@@H](Cc1ccccc1)C(=O)NCC(=O)N[C@H](Cc1c[nH]c2ccccc12)C(=O)N[C@@H](CCCNC(=N)N)C(=O)N[C@@H](Cc1ccccc1)C(N)=O` [Peptide 230] (Ac-[dY]NWNGFG[dW]RF-NH2) came in with an IC50 of 0.05 µM. In addition, the “stimulation of IP by the peptide alone” value on GPR54 [2] is reported as “little or no stimulation”.
For `CC(=O)N[C@@H](Cc1ccc(O)cc1)C(=O)N[C@H](CC(N)=O)C(=O)N[C@@H](Cc1c[nH]c2ccccc12)C(=O)N[C@@H](CC(N)=O)C(=O)NCC(=O)N[C@@H](Cc1ccccc1)C(=O)NCC(=O)N[C@H](Cc1c[nH]c2ccccc12)C(=O)N[C@@H](CCCNC(=N)N)C(=O)N[C@@H](Cc1ccccc1)C(N)=O` [Peptide 232] (Ac-Y[dN]WNGFG[dW]RF-NH2) the same measures were 0.03 µM and “little or no stimulation”.
For `CC(=O)N[C@@H](Cc1ccc(O)cc1)C(=O)N[C@@H](CC(N)=O)C(=O)N[C@H](C)C(=O)N[C@@H](CC(N)=O)C(=O)NCC(=O)N[C@@H](Cc1ccccc1)C(=O)NCC(=O)N[C@H](Cc1c[nH]c2ccccc12)C(=O)N[C@@H](CCCNC(=N)N)C(=O)N[C@@H](Cc1ccccc1)C(N)=O` [Peptide 235] (Ac-YN[dA]NGFG[dW]RF-NH2) the same measures were 0.01 µM and “little or no stimulation”.
On the same counts, the results for `CC(=O)N[C@@H](Cc1ccc(O)cc1)C(=O)N[C@H](C)C(=O)N[C@@H](Cc1c[nH]c2ccccc12)C(=O)N[C@@H](CC(N)=O)C(=O)NCC(=O)N[C@@H](Cc1ccccc1)C(=O)NCC(=O)N[C@H](Cc1c[nH]c2ccccc12)C(=O)N[C@@H](CCCNC(=N)N)C(=O)N[C@@H](Cc1ccccc1)C(N)=O` [Peptide 236] (Ac-Y[dA]WNGFG[dW]RF-NH2) are 0.05 µM and “little or no stimulation”.
Turning to `CC(=O)N[C@H](Cc1ccccc1)C(=O)N[C@@H](CC(N)=O)C(=O)N[C@@H](Cc1c[nH]c2ccccc12)C(=O)N[C@@H](CC(N)=O)C(=O)NCC(=O)N[C@@H](Cc1ccccc1)C(=O)NCC(=O)N[C@H](Cc1c[nH]c2ccccc12)C(=O)N[C@@H](CCCNC(=N)N)C(=O)N[C@@H](Cc1ccccc1)C(N)=O` [Peptide 244] (Ac-[dF]NWNGFG[dW]RF-NH2), on GPR54 [1], the “Inhibition of IP stimulation by 10 nM Agonist: % Inhibition of Max” value (from here on “Inhibition … % Inhibition of Max”) is given as 60% and inhibition was half-maximal at 0.01 µM (IC50).
Take `CC(=O)N[C@H](Cc1ccc(O)cc1)C(=O)N[C@@H](CC(N)=O)C(=O)N[C@@H](Cc1c[nH]c2ccccc12)C(=O)N[C@@H](CC(N)=O)C(=O)NCC(=O)N[C@H](Cc1c[nH]c2ccccc12)C(=O)NCC(=O)N[C@H](Cc1c[nH]c2ccccc12)C(=O)N[C@@H](CCCNC(=N)N)C(=O)N[C@@H](Cc1ccccc1)C(N)=O` [Peptide 245] (Ac-[dY]NWNG[dW]G[dW]RF-NH2): on GPR54 [1], the “Inhibition … % Inhibition of Max” value is 66%.
For the compound `CC(=O)N[C@H](C)C(=O)N[C@@H](CC(N)=O)C(=O)N[C@@H](Cc1c[nH]c2ccccc12)C(=O)N[C@@H](CC(N)=O)C(=O)NCC(=O)N[C@H](Cc1c[nH]c2ccccc12)C(=O)NCC(=O)N[C@H](Cc1c[nH]c2ccccc12)C(=O)N[C@@H](CCCNC(=N)N)C(=O)N[C@@H](Cc1ccccc1)C(N)=O` [Peptide 246] (Ac-[dA]NWNG[dW]G[dW]RF-NH2), on GPR54 [1], the “Inhibition … % Inhibition of Max” value was determined as 80% and the IC50 was 0.05 µM.
On to `CC(=O)N[C@H](C)C(=O)N[C@@H](CC(N)=O)C(=O)N[C@@H](Cc1c[nH]c2ccccc12)C(=O)N[C@@H](CC(N)=O)C(=O)N[C@@H](CO)C(=O)N[C@@H](Cc1ccccc1)C(=O)NCC(=O)N[C@H](Cc1c[nH]c2ccccc12)C(=O)N[C@@H](CCCNC(=N)N)C(=O)N[C@@H](Cc1ccccc1)C(N)=O` [Peptide 247] (Ac-[dA]NWNSFG[dW]RF-NH2), for which, on GPR54 [1], the “Inhibition … % Inhibition of Max” value was determined as 80%.
As to `CC(=O)N[C@H](C)C(=O)N[C@@H](CC(N)=O)C(=O)N[C@@H](Cc1c[nH]c2ccccc12)C(=O)N[C@@H](CC(N)=O)C(=O)NCC(=O)N[C@@H](Cc1ccccc1)C(=O)NCC(=O)N[C@@H](Cc1c[nH]c2ccccc12)C(=O)N[C@@H](CCCNC(=N)N)C(=O)N[C@@H](Cc1ccccc1)C(N)=O` [Peptide 248] (Ac-[dA]NWNGFGWRF-NH2), on GPR54 [1], the “Inhibition … % Inhibition of Max” value stood at 64%.
Regarding `CSCC[C@H](NC(=O)[C@H](CCCNC(=N)N)NC(=O)[C@H](CCCNC(=N)N)NC(C)=O)C(=O)N[C@@H](CCCCN)C(=O)N[C@@H](Cc1c[nH]c2ccccc12)C(=O)N[C@@H](CCCCN)C(=O)N[C@@H](CCCCN)C(=O)N[C@@H](Cc1ccc(O)cc1)C(=O)N[C@H](C)C(=O)N[C@@H](CC(N)=O)C(=O)N[C@@H](Cc1c[nH]c2ccccc12)C(=O)N[C@@H](CC(N)=O)C(=O)NCC(=O)N[C@@H](Cc1ccccc1)C(=O)NCC(=O)N[C@H](Cc1c[nH]c2ccccc12)C(=O)N[C@@H](CCCNC(=N)N)C(=O)N[C@@H](Cc1ccccc1)C(N)=O` [Peptide 271, ac.R-R-M-K-W-K-K-Y-(D)A-N-W-N-G-F-G-(D)W-R-F.z] (Ac-RRMKWKKY[dA]NWNGFG[dW]RF-NH2), on GPR54 [1], the “Inhibition … % Inhibition of Max” value turned out to be 57% and the IC50 turned out to be 0.005 µM. For the same compound, at GPR54 [1] (with N-terminal Antennapedia heptapeptide), the kisspeptin antagonist function result is “retains kisspeptin antagonist function”.
On to `CC(=O)N[C@H](C)C(=O)N[C@@H](CC(N)=O)C(=O)N[C@@H](Cc1c[nH]c2ccccc12)C(=O)N[C@@H](CC(N)=O)C(=O)N[C@H](CO)C(=O)N[C@@H](Cc1ccccc1)C(=O)NCC(=O)N[C@H](Cc1c[nH]c2ccccc12)C(=O)N[C@@H](CCCNC(=N)N)C(=O)N[C@@H](Cc1ccccc1)C(N)=O` [Peptide 273] (Ac-[dA]NWN[dS]FG[dW]RF-NH2), for which, at GPR54 [1], the “Inhibition … % Inhibition of Max” value is given as 79% and the IC50 was 0.004 µM. Moreover, the “inhibition of migration by 1 nM Kisspeptin in the presence of peptide” value in experiment [3] came out at 10%.
Regarding `CC(=O)N[C@H](C)C(=O)N[C@@H](CC(N)=O)C(=O)N[C@@H](Cc1c[nH]c2ccccc12)C(=O)N[C@@H](CC(N)=O)C(=O)N1CCC[C@H]1C(=O)N[C@@H](Cc1ccccc1)C(=O)NCC(=O)N[C@H](Cc1c[nH]c2ccccc12)C(=O)N[C@@H](CCCNC(=N)N)C(=O)N[C@@H](Cc1ccccc1)C(N)=O` [Peptide 274] (Ac-[dA]NWNPFG[dW]RF-NH2), at GPR54 [1], the “Inhibition … % Inhibition of Max” value amounted to 73% and half-maximal inhibition (IC50) required 0.0001 µM.
On the same counts, the results for `CC(=O)N[C@H](C)C(=O)N[C@@H](CC(N)=O)C(=O)N[C@@H](Cc1c[nH]c2ccccc12)C(=O)N[C@@H](CC(N)=O)C(=O)N1CCC[C@@H]1C(=O)N[C@@H](Cc1ccccc1)C(=O)NCC(=O)N[C@H](Cc1c[nH]c2ccccc12)C(=O)N[C@@H](CCCNC(=N)N)C(=O)N[C@@H](Cc1ccccc1)C(N)=O` [Peptide 275] (Ac-[dA]NWN[dP]FG[dW]RF-NH2) are 44% and above 0.1 µM.
In the case of `CC(=O)N[C@H](C)C(=O)N[C@@H](CC(N)=O)C(=O)N[C@@H](Cc1c[nH]c2ccccc12)C(=O)N[C@@H](CC(N)=O)C(=O)NCC(=O)N[C@@H](Cc1ccccc1)C(=O)NCC(=O)N[C@H](CC(C)C)C(=O)N[C@@H](CCCNC(=N)N)C(=O)N[C@@H](Cc1ccccc1)C(N)=O` [Peptide 276] (Ac-[dA]NWNGFG[dL]RF-NH2), the “Inhibition … % Inhibition of Max” value at GPR54 [1] was 65%.
Still for that read-out and setting: with `CC(=O)N[C@H](C)C(=O)N[C@@H](CC(N)=O)C(=O)N[C@@H](Cc1c[nH]c2ccccc12)C(=O)N[C@@H](CC(N)=O)C(=O)N[C@H](C)C(=O)N[C@@H](Cc1ccccc1)C(=O)NCC(=O)N[C@@H](CC(C)C)C(=O)N[C@@H](CCCNC(=N)N)C(=O)N[C@@H](Cc1ccccc1)C(N)=O` [Peptide 277] (Ac-[dA]NWN[dA]FGLRF-NH2) the figure was 57%.
Consider `CC(=O)N[C@H](C)C(=O)N[C@@H](CC(N)=O)C(=O)N[C@@H](Cc1c[nH]c2ccccc12)C(=O)N[C@@H](CC(N)=O)C(=O)NCC(=O)N[C@@H](Cc1ccccc1)C(=O)NCC(=O)N[C@@H](CC(C)C)C(=O)N[C@H](CCCNC(=N)N)C(=O)N[C@@H](Cc1ccccc1)C(N)=O` [Peptide 278] (Ac-[dA]NWNGFGL[dR]F-NH2), for which, at GPR54 [1], the “Inhibition … % Inhibition of Max” value was found to be 47% and the IC50 was above 0.2 µM.

These data come from patent US8916681B2, “Compound, use and method” (Medical Research Council, priority 2007, dated 2014).
